In US10258687B2, “Development of methods for production of a whole virus vaccine candidate stock and novel adaptive mutations in hepatitis C virus” (Hvidovre Hospital, priority 2014, dated 2019):
Values joined by “and” are separate entries in the source; they are usually repeats but may differ in a detail not shown here. Equal entries are not always repeated. Structures can show the parent of a compound that is named as a salt.

Experiments:
[1] = test system: clathrin-mediated endocytosis; assay: Chlorpromazine inhibition of HCVcc and sf-HCVcc entry; assay type: cell-based, Human; conditions: genotype 1-6 HCVcc and sf-HCVcc, cells pre-treated, up to 10 μg/mL
Experimental: FIG. 11: Effect of chlorpromazine treatment on HCVcc and sf-HCVcc entry. (A-G) Chlorpromazine was diluted in DMEM+10% FBS to the concentrations indicated and then added to Huh7.5 cells, plated the previous day onto poly-D-lysine coated 96-well plates, and incubated for 30 minutes. HCVcc (black bars) were diluted in DMEM+10% FBS and sf-HCVcc (grey bars) were diluted in AEM+10% FBS and added to cultures. After 6 hours incubation, chlorpromazine-virus mixes were removed and DMEM+10% FBS was added. Cells were fixed 48 hours post infection and stained, and the number of single HCV NS5A positive cells per well was determined by automated counting as described in Materials and Methods. The HCV Core-E2 sequences of all virus stocks used were determined by direct sequencing. Sequences were identical for HCVcc and sf-HCVcc of the same recombinant. Compared to the plasmid sequence, H77(1a) viruses had acquired amino acid change I348S and J4(1b) had acquired amino acid change V710L, both estimated to be present in the majority of viral genomes. The % blocking was calculated by relating counts of experimental wells to the mean count of six replicate wells with untreated control virus. […] The % viability was calculated by relating absorbance at 490 nm determined for chlorpromazine treated cultures to the mean absorbance of three replicate untreated cultures. […]

Huh7.5 cells [2] = assay: Chlorpromazine cytotoxicity (cell viability assay); assay type: cell-based, Human; conditions: 6 hours treatment
Experimental: For determination of Huh7.5 cell viability in DMEM+10% FBS versus AEM, we plated 6,000 cells per well of poly-D-lysine coated 96-well plates in DMEM+10% FBS. The following day, medium was removed and cells were incubated in DMEM+10% FBS or AEM for 48 hours. Then, cell viability was determined using the CellTiter 96® AQueous One Solution Cell Proliferation Assay kit (Promega) according to the manufacturer's instructions. The % viability was calculated by relating absorbance at 490 nm determined for 10 AEM cultures to the mean absorbance of 10 replicate DMEM+10% FBS cultures. For determination of chlorpromazine cytotoxicity, chlorpromazine was diluted in DMEM+10% FBS as specified and then added to 6,000 Huh 7.5 cells/well, plated the previous day in poly-D-lysine coated 96-well plates. Cells were incubated for 6 hours before chlorpromazine was removed and DMEM+10% FBS was added. Cell viability was determined 6 and 48 hours post-treatment using the CellTiter 96® AQueous One Solution Cell Proliferation Assay kit. The % viability was calculated by relating absorbance at 490 nm determined for chlorpromazine treated cultures to the mean absorbance of at least three replicate untreated cultures.

Huh7.5 cells [3] = assay: Supernatant infectivity titration (FFU assay) after transfection, infection or serial passage, Example 2; assay type: cell-based, Human; conditions: both kinetics experiments (MOIs of 0.003 and 0.0003)
Experimental: For transfection of Huh7.5 cells, 350,000 cells/well were seeded in 6-well plates (Nunc) and incubated for 24 hours. Plasmids (10 μg) were linearized by over-night digestion with XbaI (New England Biolabs). Linearized plasmids were purified using Wizard® SV Gel and PCR Clean-Up System (Promega). In vitro transcription was performed using T7 RNA polymerase (Promega) for 2 hours at 37° C. Transfection was performed by incubating 5 μL lipofectamine 2000 (Invitrogen) and the RNA transcripts in 500 μL serum-free Opti-MEM (Gibco/Invitrogen) for 20 minutes at room temperature. RNA-lipofectamine complexes were added to the pre-plated cells and incubated for 16-24 hours. Transfection efficiencies and culture spread were determined by HCV NS5A immunostaining (see below). […]
For infection of Huh7.5 cells in culture flasks, cells were seeded and incubated for 24 hours. When cells were evaluated to be ˜80% confluent, they were infected at a multiplicity of infection (MOI) of either 0.003 or 0.0003 for 3 hours (see Figure legends for details). […] Infection spread was monitored by HCV NS5A immunostaining (see below). […] For serum-free cultures, cells were infected in complete DMEM as described above and spread was monitored by NS5A immunostaining. […]
Culture supernatant infectivity titers were determined as Focus Forming Units (FFU)/mL. […]

Huh7.5 cells [4] = assay: Infectivity of virus diluted in different media (FIG. 7); assay type: cell-based, Human; conditions: virus diluted in AEM prior to infection
Experimental: (A-C) Cells were incubated with virus mixes for 3 hours. After incubation, fresh DMEM+10% FBS was added to all wells. Cells were incubated for 48 hours before they were fixed, stained and the number of single HCV NS5A positive cells per well was determined by automated counting as described in Materials and Methods. Error bars represent SEM of triplicates. For (B), the mean infectivity (HCV NS5A positive cells/well) of triplicate wells of the reference culture (DMEM+10% FBS, black bar) was set to 100%. The number of HCV NS5A positive cells/experimental well was related to this mean to calculate % infectivity relative to the reference culture.

[5] = serial passage by others; cited from earlier work

Molecule | blocking rates [1] | highest concentration not resulting in cytotoxic effects (Huh7.5 cells [2]) | peak infectivity titers (Huh7.5 cells [3]) | infectivity using AEM during the viral infection step (in words) (Huh7.5 cells [4]) | peak infectivity titers of adapted stocks [5]
CN(C)CCCN1c2ccccc2Sc2ccc(Cl)cc21 [chlorpromazine, chlorpromazine hydrochloride] | up to 93% | 10 µg/mL |  |  | 
J6/JFH1 [J6(2a)] |  |  | 4.8 log 10 FFU/mL and 4.9 log 10 FFU/mL | infectivity was also reduced | 8 log 10 TCID50/mL and ~6.5 log 10 TCID50/mL
